Experiments:
[1] = tested on: chondrocytes in the cartilage chamber; test: RT-PCR marker expression, chondrocyte response in cartilage (top) chamber of the bioreactor; type: cell-based; settings: weeks 3 and 4 (1 nM estradiol + 10 nM progesterone; 0.1 nM estradiol + 50 nM progesterone)
Experimental: FIGS. 17-20 are graphs that show differential expression of markers (as determined by RT-PCR) for a control medium that contained no estrogen or progesterone (first bar), and then different concentrations of hormones supplied to one or the other of the bioreactor chambers during week 1 (w1: 0.1 nM estradiol), week 2 (w2: 1 nM estradiol), week 3 (w3: 1 nM estradiol and 10 nM progesterone), and week 4 (w4: 0.1 nM estradiol and 50 nM progesterone). […] FIGS. 17-18 show differential expression of markers (as determined by RT-PCR) for a control medium that contained no estrogen or progesterone (first bar), and then different concentrations of hormones supplied to the chambers during week 1 (w1: 0.1 nM estradiol), week 2 (w2: 1 nM estradiol), week 3 (w3: 1 nM estradiol and 10 nM progesterone), and week 4 (w4: 0.1 nM estradiol and 50 nM progesterone).

[2] = not told
From the text: The porosity and permeability of the latter have been estimated via Boyle's pycnometer and scanning electron microscopy (SEM) analysis.

Row | Permeability [2] | Compound | expression of cartilage anabolic markers, progesterone progressively added [1]
1 | – | CC(=O)[C@H]1CC[C@H]2[C@@H]3CCC4=CC(=O)CC[C@]4(C)[C@H]3CC[C@]12C [progesterone] | downregulation is still present
2 | 3.234e−09 m^2 | poly-L-lactate [PLLA scaffold] | –

— patent publication US11154858B2, “Microfluidic tissue development systems” (University of Pittsburgh—Of the Commonwealth System of …, priority 2015, dated 2021)
